In assay [1] the target is T1, Seed linoleate 13S-lipoxygenase-1 (Glycine max, UniProt P08170).
T1 sequence (P08170 whole entry): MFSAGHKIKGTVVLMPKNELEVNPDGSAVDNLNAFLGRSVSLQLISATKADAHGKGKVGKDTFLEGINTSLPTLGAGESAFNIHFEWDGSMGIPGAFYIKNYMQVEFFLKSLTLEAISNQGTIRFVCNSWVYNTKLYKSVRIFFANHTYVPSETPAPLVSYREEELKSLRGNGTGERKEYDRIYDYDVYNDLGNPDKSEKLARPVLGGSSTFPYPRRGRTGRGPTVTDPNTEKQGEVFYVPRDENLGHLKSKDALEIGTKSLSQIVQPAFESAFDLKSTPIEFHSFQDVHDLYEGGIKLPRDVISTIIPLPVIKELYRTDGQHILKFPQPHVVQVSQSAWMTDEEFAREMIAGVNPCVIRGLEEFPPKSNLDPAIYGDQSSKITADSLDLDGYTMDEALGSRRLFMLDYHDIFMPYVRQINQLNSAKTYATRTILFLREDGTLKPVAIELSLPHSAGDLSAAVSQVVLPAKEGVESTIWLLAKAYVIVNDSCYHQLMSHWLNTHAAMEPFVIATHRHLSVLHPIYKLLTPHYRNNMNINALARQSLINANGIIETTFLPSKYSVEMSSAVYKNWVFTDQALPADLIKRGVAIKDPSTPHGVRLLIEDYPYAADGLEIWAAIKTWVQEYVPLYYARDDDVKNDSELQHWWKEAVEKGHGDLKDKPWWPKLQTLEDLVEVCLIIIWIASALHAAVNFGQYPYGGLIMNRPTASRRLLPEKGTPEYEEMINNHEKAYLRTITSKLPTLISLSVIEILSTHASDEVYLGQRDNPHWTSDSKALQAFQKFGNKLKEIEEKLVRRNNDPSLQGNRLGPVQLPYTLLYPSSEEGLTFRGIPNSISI
Description: In vitro inhibitory activity against 15-lipoxygenase obtained from soybean

The target in assay [2] is T2, Prostaglandin G/H synthase 1 (Ovis aries, UniProt P05979).
T2 sequence (P05979 whole entry): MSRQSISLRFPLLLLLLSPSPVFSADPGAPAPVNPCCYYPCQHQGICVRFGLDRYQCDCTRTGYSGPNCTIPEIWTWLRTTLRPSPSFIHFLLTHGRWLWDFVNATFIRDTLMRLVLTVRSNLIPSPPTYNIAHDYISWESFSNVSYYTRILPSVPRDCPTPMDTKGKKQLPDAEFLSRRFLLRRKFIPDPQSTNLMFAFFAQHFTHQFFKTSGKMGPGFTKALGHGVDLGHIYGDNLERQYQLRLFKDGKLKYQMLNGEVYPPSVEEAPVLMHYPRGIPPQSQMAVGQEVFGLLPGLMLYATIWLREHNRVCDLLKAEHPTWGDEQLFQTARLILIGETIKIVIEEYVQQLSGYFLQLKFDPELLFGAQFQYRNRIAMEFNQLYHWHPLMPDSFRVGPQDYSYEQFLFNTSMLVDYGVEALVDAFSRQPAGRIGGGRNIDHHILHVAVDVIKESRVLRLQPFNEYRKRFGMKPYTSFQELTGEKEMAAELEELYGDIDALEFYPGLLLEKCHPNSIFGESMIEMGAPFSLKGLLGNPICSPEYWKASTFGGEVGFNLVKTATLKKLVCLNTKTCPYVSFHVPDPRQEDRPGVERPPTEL
Kind of assay: In vitro inhibitory activity against ovine cyclooxygenase 1.

In assay [3] the target is T1, Seed linoleate 13S-lipoxygenase-1. This is another data set of the same source.
Description: In vitro inhibitory activity against 5-lipoxygenase obtained from potato

The values below come from ChEMBL document CHEMBL1143476, “Synthesis and biological evaluation of 1,3-diphenylprop-2-yn-1-ones as dual inhibitors of cyclooxygenases and lipoxygenases” (Bioorg Med Chem Lett, 2005).

The IC50 is the concentration needed to halve the response being measured. Take `CS(=O)(=O)c1ccc(C#CC(=O)c2ccccc2)cc1`: the concentration for half-maximal inhibition (IC50) in assay [1] was over 10 µM; in assay [2] it was 1 µM.
As to `CS(=O)(=O)c1ccc(C#CC(=O)c2ccc(C(F)(F)F)cc2)cc1`, the figures for the IC50 in assay [1], in assay [2] and in assay [3] were over 10 µM, 3.1 µM and over 10 µM, respectively.
`CS(=O)(=O)c1ccc(C#CC(=O)c2ccc(O)cc2)cc1`: the IC50 in assay [1] was 0.32 µM; in assay [2], 3.5 µM; in assay [3], 0.3 µM.
On to `COc1cccc(C(=O)C#Cc2ccc(S(C)(=O)=O)cc2)c1`, for which the IC50 is over 10 µM in assay [1], over 100 µM in assay [2] and 9 µM in assay [3].
As for `COc1cc(C(=O)C#Cc2ccc(S(C)(=O)=O)cc2)cc(OC)c1OC`, the IC50 was over 10 µM in assay [1], over 100 µM in assay [2] and 7 µM in assay [3].
On to `Cc1ccc(C(=O)C#Cc2ccc(S(C)(=O)=O)cc2)cc1`, for which the IC50 in assay [1] is over 10 µM; in assay [2], over 100 µM; in assay [3] it was over 10 µM.
`COc1ccc(C(=O)C#Cc2ccc(S(C)(=O)=O)cc2)cc1O`: the 50% inhibitory concentration (IC50) in assay [1] is 0.3 µM; in assay [2], 1 µM; in assay [3] it was over 10 µM.
`CS(=O)(=O)c1ccc(C#CC(=O)c2ccc(F)c(F)c2)cc1`: the figures for the concentration for half-maximal inhibition (IC50) in assay [1], in assay [2] and in assay [3] were 3.2 µM, 3.1 µM and 0.4 µM, respectively.
For `CS(=O)(=O)c1ccc(C#CC(=O)c2ccc(C#N)cc2)cc1`, the concentration for half-maximal inhibition (IC50) in assay [2] came out at 31.5 µM.
As to `CS(=O)(=O)c1ccc(C#CC(=O)c2cccc(O)c2)cc1`, the IC50 in assay [1] is 0.5 µM; in assay [2], over 100 µM; in assay [3], 0.3 µM.
`COc1ccc(C(=O)C#Cc2ccc(S(C)(=O)=O)cc2)cc1`: the IC50 was 3.5 µM in assay [1] and over 10 µM in assay [3].
Take `COc1cc(C(=O)C#Cc2ccc(S(C)(=O)=O)cc2)ccc1O`: the half-maximal inhibitory concentration (IC50) in assay [1] is 0.1 µM; in assay [2], 1.1 µM; in assay [3] it was over 10 µM.
For `CS(=O)(=O)c1ccc(C#CC(=O)c2ccc(F)cc2)cc1`, the IC50 is 1 µM in assay [1], 30 µM in assay [2] and over 10 µM in assay [3].
Regarding `O=c1cc(-c2ccc(O)c(O)c2)oc2cc(O)cc(O)c12` [LUTEOLIN], in assay [1], the concentration for half-maximal inhibition (IC50) is 3.2 µM.
